{"source": "paper PMC8073686", "about": "“Characterization of Subtype Selective Cannabinoid CB2 Receptor Agonists as Potential Anti-Inflammatory Agents” (Pharmaceuticals, 2021)", "biological_target": "T1, CB2 (Homo sapiens, UniProt P34972)", "T1 construct": "expressed in transfected cells; host or cells: HEK293T cells, calcium phosphate transfection, membrane preparation", "T1 sequence (P34972 whole entry)": "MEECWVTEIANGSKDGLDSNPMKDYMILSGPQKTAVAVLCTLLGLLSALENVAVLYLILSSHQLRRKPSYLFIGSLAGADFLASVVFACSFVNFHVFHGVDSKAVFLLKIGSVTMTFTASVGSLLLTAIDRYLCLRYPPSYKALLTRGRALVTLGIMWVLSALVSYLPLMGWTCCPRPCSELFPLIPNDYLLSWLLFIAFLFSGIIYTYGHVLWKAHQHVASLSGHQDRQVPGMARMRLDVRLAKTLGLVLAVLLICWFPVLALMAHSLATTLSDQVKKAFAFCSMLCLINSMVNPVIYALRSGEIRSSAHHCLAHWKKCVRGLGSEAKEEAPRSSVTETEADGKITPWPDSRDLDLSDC", "experiment": "[35S]GTPγS binding assay (G-protein coupling), CB2 containing HEK293T cell membrane", "type": "biochemical", "details": "stimulation of [35S]GTPγS binding; mean ± S.D.", "procedure": "We also examined if the compounds can induce G-protein coupling and act as CB2 agonists. Three compounds, ABK5-1, ABK5-2, and ABK5-6, were subjected to [^35S]GTPγS binding assays. Increasing concentrations, from 1 nM to 10 μM of the test compounds, were incubated with CB2 containing HEK293T cell membrane and [^35S]GTPγS, which binds to Gi/o in the membrane upon CB2 activation and G-protein coupling. All three compounds stimulated dose-dependent increases of specific [^35S]GTPγS binding (Figure 3).\nIn the experiment, 1 × 10^6 HEK293T cells were seeded in a 10-cm cell culture dish and cultured for 24 h. Cells were transfected with CB1 or CB2 using the calcium phosphate method. Approximately one day after transfection, cells were harvested and centrifuged at 4 °C for 5 min at 500× g. The pellet was washed with phosphate buffered saline (PBS) twice and resuspended in PBS containing 1% protease-inhibitor cocktail (Sigma-Aldrich, St. Louis, MO, USA) consisting of 104 mM 4-(2-aminoethyl) benzene sulfonyl fluoride hydrochloride (AEBSF), 80 μM apronitin, 4 mM bestatin, 1.64 mM E-64, 2 mM leupeptin, 1.5 mM pepstatin A. Then the cells were subjected to nitrogen cavitation under 750 psi for 5 min using a Parr cell disruption bomb. The lysate was centrifuged at 500× g for 10 min at 4 °C and the supernatant was spun at 116,000× g for 45 min at 4 °C. The pellet, consisting of the cell membrane expressing CB1 or CB2, was resuspended in TME buffer solution (25 mM Tris-HCl, 5 mM MgCl2, and 1 mM EDTA, pH 7.4) with 7% (w/v) sucrose/TME buffer. The concentration of the membrane protein was determined by the Bradford assay (Bradford, 1976).\nGTPγS binding assay buffer ([…], pH 7.4, 3 mM MgCl2, 0.2 mM EGTA, and 100 mM NaCl) membrane protein, 1 nM to 10 μM of the test compounds, 0.1 nM [^35S] GTPγS (1250 Ci/mmol; PerkinElmer Life Sciences, Waltham, MA, USA), 0.1% fatty acid free BSA (w/v), 10 μM guanosine diphosphate (GDP) and GTPγS was incubated for 1 h at 30 °C with shaking. […] A Beckman Coulter 6500 liquid scintillation counter was used to measure the radioactivity of the samples. […]", "data": [{"smiles": "CCOC(=O)c1ccccc1NC(=O)CN(c1ccc(C)cc1C)S(=O)(=O)c1ccccc1", "note": "[ABK5-1]", "values": [{"measurement": "EC50", "result": "0.011 ± 0.014", "unit": "µM"}]}, {"smiles": "CCOC(=O)c1ccccc1NC(=O)CN(c1c(C)cccc1C)S(=O)(=O)c1ccccc1", "note": "[ABK5-2]", "values": [{"measurement": "EC50", "result": "0.024 ± 0.025", "unit": "µM"}]}]}
